Test results reported in US20170305922A1, “CARM1 INHIBITORS AND USES THEREOF” (Epizyme, Inc., priority 2014, published 2017).
pIC50: −log10 of the molar value.

What was measured:
Human CARM1 (PRMT4) = target: T1, Human CARM1 (PRMT4) (Homo sapiens, UniProt Q86X55); assay: CARM1 enzyme assay on peptide substrates (3H-SAM Flashplate); details: Biochemical assay; CARM1 0.25 nM, 3H-SAM 30 nM, peptide 250 nM; read-out: Biochem IC50
T1 construct: Flag-CARM1-His was eluted with 200 ug/ml FLAG peptide in buffer A; made in house; host or cells: HEK 293F cells infected with recombinant baculovirus (pFastBacMam)
T1 sequence (Q86X55 1-585 isoform Q86X55-1): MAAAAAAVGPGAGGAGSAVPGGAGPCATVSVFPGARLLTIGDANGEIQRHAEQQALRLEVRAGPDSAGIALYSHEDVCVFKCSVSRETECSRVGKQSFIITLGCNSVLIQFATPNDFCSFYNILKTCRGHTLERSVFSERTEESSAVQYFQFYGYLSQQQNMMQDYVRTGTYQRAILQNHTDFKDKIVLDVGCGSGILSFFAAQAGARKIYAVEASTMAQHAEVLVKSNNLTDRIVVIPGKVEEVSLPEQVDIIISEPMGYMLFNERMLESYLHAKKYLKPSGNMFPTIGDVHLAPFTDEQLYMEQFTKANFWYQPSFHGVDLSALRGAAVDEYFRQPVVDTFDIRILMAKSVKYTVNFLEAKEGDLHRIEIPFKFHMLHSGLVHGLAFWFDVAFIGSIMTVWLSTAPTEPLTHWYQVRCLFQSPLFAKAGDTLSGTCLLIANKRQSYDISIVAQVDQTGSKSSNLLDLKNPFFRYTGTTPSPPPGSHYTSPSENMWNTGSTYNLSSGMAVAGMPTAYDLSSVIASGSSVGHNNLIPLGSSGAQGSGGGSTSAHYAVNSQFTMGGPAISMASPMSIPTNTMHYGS

[1] = system: asymmetric di-methyl PABP1 in RKO cells; assay: RKO methylation assay: In Cell Western (ICW) for asymmetric di-methyl PABP1 (PABP1me2a); details: Homo sapiens, RKO, 48 h, Cellular-based (PABP1me2a) ICW (In Cell Western) assay
Outline: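 In-cell western on compound-exposed RKO cells (48 hours): asymmetric di-methyl PABP1 detected by antibody at 800 nm, DNA content by DRAQ5 at 700 nm. Percent inhibition from signal ratios against DMSO (minimum) and 20 μM reference compound (maximum) wells; IC50 curves fitted from triplicates.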

Compound | pIC50 (Human CARM1 (PRMT4)) | pIC50 [1]
CNC[C@@H](O)COc1ccc(Cl)c(-c2nc(-c3cnn(C4CC4)c3)c(C)c(-c3c(C)noc3C)n2)c1 [Example 103] | 8.09 | 6.89
CNC[C@@H](O)COc1ccc(Cl)c(-c2nc(-c3c(C)noc3C)c(C)c(N3Cc4cnc(OC5CCOCC5)nc4C3)n2)c1 [Example 166] | 8.29 | 7.31
CNC[C@@H](O)COc1ccc(Cl)c(-c2nc(-c3c(C)noc3C)c(C)c(N3CC4=C(CN(C(=O)N(C)C)C4)C3)n2)c1 [Example 177] | 8.44 | 7.06
CNC[C@@H](O)COc1ccc(Cl)c(-c2nc(-c3c(C)noc3C)c(C)c(N3CCC4(C3)OCCO4)n2)c1 [Example 25] | 8.25 | 6.34
CNC[C@@H](O)COc1ccc(Cl)c(-c2nc(-c3c(C)noc3C)c(C)c(N3Cc4nccc(C)c4C3)n2)c1 [Example 164] | 8.66 | 7.26
CNC[C@@H](O)COc1ccc(Cl)c(-c2nc(-c3c(C)noc3C)c(C)c(N3C[C@H]4CN(CC(F)F)C[C@@H]4C3)n2)c1 [Example 29] | 7.99 | 6.58
CNC[C@@H](O)COc1ccc(C(F)(F)F)c(-c2nc(-c3c(C)noc3C)c(C)c(N3CC4(CCOCC4)C3)n2)c1 [Example 21] | 7.78 | 6.75
CCn1ncc(Cl)c1-c1nc(-c2cc(OC[C@H](O)CNC)ccc2Cl)nc(N2Cc3cncnc3C2)c1C [Example 76] | 8.32 | 6.57
CNC[C@@H](O)COc1ccc(Cl)c(-c2nc(-c3c(C)noc3C)c(C)c(N3CC4(CCN(S(C)(=O)=O)CC4)C3)n2)c1 [Example 52] | 8.14 | 6.64
CNC[C@@H](O)COc1ccc(Cl)c(-c2nc(CCC3CCN(C(=O)OC)CC3)c(C)c(-c3c(C)noc3C)n2)c1 [Example 107] | 7.95 | 6.75
CNC[C@@H](O)COc1ccc(Cl)c(-c2nc(-c3c(C)noc3C)c(C)c(N3CC4(C3)CC(OC)(OC)C4)n2)c1 [Example 272] | 8.27 | 7.10
CNC[C@@H](O)COc1ccc(Cl)c(-c2nc(-c3c(C)noc3C)c(C)c(N3Cc4ncnc(OCCOC)c4C3)n2)c1 [Example 94] | 8.64 | 7.36
CNC[C@@H](O)COc1ccc(Cl)c(-c2nc(-c3c(C)noc3C)c(C)c(N3CC(C)(C#N)C3)n2)c1 [Example 240] | 8.39 | 6.40
CNC[C@@H](O)COc1ccc(Cl)c(-c2nc(-c3c(C)noc3C)c(C)c(N3CC4(CCN(C(=O)N(C)C)C4)C3)n2)c1 [Example 48] | 7.90 | 6.62
CNC[C@@H](O)COc1ccc(Cl)c(-c2nc(-c3c(C)noc3C)c(C)c(N3CC4(CCN(C(=O)OC)CC4)C3)n2)c1Cl [Example 338] | 7.51 | 5.74
CNC[C@@H](O)COc1ccc(Cl)c(-c2nc(-c3c(C)noc3C)c(C)c(N3Cc4ccc(N(C)C)nc4C3)n2)c1 [Example 258] | 8.74 | 7.53
CNC[C@@H](O)COc1ccc(Cl)c(-c2nc(-c3c(C)noc3C)c(C)c(N3CC4=C(CN(CC(F)(F)F)CC4)C3)n2)c1 [Example 247] | 8.40 | 7.21
CNC[C@@H](O)COc1ccc(Cl)c(-c2nc(-c3c(C)noc3C)c(C)c(N3CC4(CN(C(=O)OC)C4)C3)n2)c1 [Example 43] | 8.00 | 7.08
CNC[C@@H](O)COc1ccc(Cl)c(-c2nc(-c3c(C)c(Br)nn3C)c(C)c(N3CC4(CC(OCC(F)F)C4)C3)n2)c1 [Example 303] | 8.23 | 7.42
CNC[C@@H](O)COc1ccc(Cl)c(-c2nc(-c3c(C)noc3C)c(C)c(N3Cc4cnc(N5CCOC5=O)nc4C3)n2)c1 [Example 181] | 8.74 | 6.34

Compound | pIC50 (Human CARM1 (PRMT4)) | pIC50 [1]
CNC[C@@H](O)COc1ccc(Cl)c(-c2nc(-c3c(C)noc3C)c(C)c(N3Cc4cnn(CC(F)F)c4C3)n2)c1 [Example 26] | 8.47 | 7.18
CNC[C@@H](O)COc1ccc(Cl)c(-c2nc(-c3c(C)noc3C)c(C)c(N3Cc4cnc(N5CCC5C)nc4C3)n2)c1 (stereo partly drawn) [Example 167] | 8.72 | 7.72
CNC[C@@H](O)COc1ccc(F)c(-c2nc(-c3c(C)noc3C)c(C)c(N3Cc4cnn(CC(F)(F)F)c4C3)n2)c1 [Example 18] | 8.51 | 7.16
CNC[C@@H](O)COc1ccc(Cl)c(-c2nc(-c3c(Cl)cnn3C)c(C)c(N3CC4=C(CN(C(=O)OC)CC4)C3)n2)c1 [Example 334] | 8.60 | 7.36
CNC[C@@H](O)COc1ccc(Cl)c(-c2nc(-c3c(C)noc3C)c(C)c(N3Cc4cnn(C5COC5)c4C3)n2)c1 [Example 125] | 8.19 | 6.82
CNC[C@@H](O)COc1ccc(Cl)c(-c2nc(-c3c(C)noc3C)c(C)c(N3CC4(CC(O)C4)C3)n2)c1 [Example 246] | 8.17 | 6.45
CNC[C@@H](O)COc1ccc(Cl)c(-c2nc(-c3c(C)noc3C)c(C)c(N3Cc4nccc(N(C)C)c4C3)n2)c1 [Example 209] | 9.22 | 6.89
CNC[C@@H](O)COc1ccc(Cl)c(-c2nc(-c3c(Cl)cnn3C)c(C)c(N3Cc4nccnc4C3)n2)c1 [Example 341] | 8.57 | 6.73
CNC[C@@H](O)COc1ccc(Cl)c(-c2nc(-c3c(C)noc3C)c(C)c(N3C[C@H]4C[C@@H]3CN4CC(F)F)n2)c1 [Example 131] | 8.05 | 6.21
CNC[C@@H](O)COc1ccc(Cl)c(-c2nc(-c3c(C)cnn3C)c(C)c(N3Cc4cncnc4C3)n2)c1 [Example 81] | 8.42 | 6.95
CNC[C@@H](O)COc1ccc(Cl)c(-c2nc(-c3c(C)noc3C)c(C)c(N3CC4(C3)CC3(C4)OCCO3)n2)c1 [Example 276] | 8.31 | 7.12
CNC[C@@H](O)COc1ccc(Cl)c(-c2nc(-c3c(C)noc3C)c(C)c(N3Cc4nc5n(c(=O)c4C3)CCC5)n2)c1 [Example 40] | 8.55 | 6.41
CNC[C@@H](O)COc1ccc(Cl)c(-c2nc(-c3c(C)noc3C)c(C)c(N3CC4(CC(N(C)C5CC5)C4)C3)n2)c1 [Example 281] | 8.98 | 7.10
CNC[C@@H](O)COc1ccc(Cl)c(-c2nc(-c3c(C)noc3C)c(C)c(N3Cc4nccc(OC)c4C3)n2)c1 [Example 236] | 8.74 | 7.20
CNC[C@@H](O)COc1ccc(Cl)c(-c2nc(-c3c(C)noc3C)c(C)c(N3CC4(CC(N(C)CC(F)F)C4)C3)n2)c1 [Example 289] | 8.39 | 7.12
CNC[C@@H](O)COc1ccc(F)c(-c2nc(-c3c(C)noc3C)c(C)c(N3Cc4cn(CC(F)(F)F)nc4C3)n2)c1 [Example 17] | 8.62 | 6.79
CNC[C@@H](O)COc1ccc(Cl)c(-c2nc(-c3c(C)c(Cl)nn3C)c(C)c(N3CC4(CCCN(C(=O)OC)C4)C3)n2)c1 [Example 295] | 8.42 | 7.08
CNC[C@@H](O)COc1ccc(Cl)c(-c2nc(-c3c(C)noc3C)c(C)c(N3CC4(CCC4OC)C3)n2)c1 (stereo partly drawn) [Example 288] | 8.41 | 6.63
CNC[C@@H](O)COc1ccc(Cl)c(-c2nc(-c3c(C)c(Cl)nn3C)c(C)c(N3Cc4cnc(OC)nc4C3)n2)c1 [Example 152] | 8.72 | 7.74
